Assays:
hypoxic pigs = assay: Intrarectal oxygenated PFC in hypoxic pigs; type: in vivo; conditions: intrarectal administration
[1] = Oxygen partial pressure of PFC bubbled with pure oxygen; type: physicochemical
Description: (§1) With use of a liquid perfluorocarbon (PFC)^12-16, an intestinal gas ventilation (ILV) system was developed. Mice were randomly assigned to two groups: sham group (group 9, n=10); and intestinal gas ventilation group (group 12, n=12). For the intestinal gas ventilation (ILV), a PFC (octadecafluorodecahydronaphthalene, Wako Pure Chemical Industries, Ltd., Osaka, Japan) was bubbled with pure oxygen for 45 minutes to dissolve oxygen therein.
First, an O2-containing PFC was prepared (by O2 bubbling at 1 L/min over 45 minutes; FIG. 3A). For mice (groups 12, 18, 19; hereinafter, referred to as intestinal gas ventilation (ILV) groups), the liquid of PFC was then infused into the intestinal tract (i.e., the rectum) in a total volume of 1 mL/mouse. The average oxygen pressure in the PFC after O2 bubbling for 45 minutes was 438±19.9 mmHg (n=3, FIG. 4E). Effects on the treated mice were evaluated by mobility assay. In summary, the walking distances of the mice were calculated to find statistical increase for the group with O2—PFC liquid infusion therapy after inhalation of hypoxic gas (the ILV group with administration of the O2-containing PFC) as compared with the control group (FiO2 0.10, control group, 0.408±1.02 cm per 20 seconds; FiO2 0.10, treated group, 3.34±4.05 cm, p<0.0001, FIG. 3B).

C57BL/6J mice [2] = assay: Behavior analysis (walking distance) of ILV-treated hypoxic mice; type: in vivo; conditions: per 20 seconds; FiO2 0.10; 120 minutes after injection to the intestinal tract
Description: Behavioral improvement in ILV-treated hypoxic mice was analyzed. The mobilities of mice were monitored for a set of two parameters from a fitted ellipse (centroidal positions (x, y)). With use of these parameters, walking distance was calculated every 20 seconds for mice of a control group and a treated group (both n=3). […] For the treated group, an O2-labeled perfluorocarbon was used as described above, and inhalation of hypoxic gas (FiO2 0.10) was performed 120 minutes after the injection to the intestinal tract (FIG. 4A).

C57BL/6J mice [3] = assay: ILV in respiratory failure model, oxygen partial pressure in left ventricle (FiO2 0.10); type: in vivo
Description: In ILV experiment, mice were randomly assigned to two groups: sham group (group 13, n=4); and ILV groups (group 18, n=4; group 19, n=4). The PFC was given to each mouse via the intestinal tract in the above-described manner, and 60 minutes and 120 minutes thereafter the oxygen partial pressure in the left ventricle of the heart under inhalation of hypoxic gas was analyzed (FiO2 0.10, inhalation time: 10 minutes).

C57BL/6J mice [4] = assay: Intestinal liquid ventilation (ILV) with oxygenated PFC, oxygen partial pressure in inferior vena cava; type: in vivo; conditions: 120 min after 1 mL PFC via the intestinal tract
Description: as §1

mice = assay: Oral administration of PFD subjected to oxygen bubbling, left ventricular blood gas; type: in vivo
Description: PFD subjected to oxygen bubbling was administered to mice through oral administration, and the effects on blood oxygen partial pressure and carbon dioxide partial pressure were examined. As a negative control, a mouse group with oral administration of physiological saline ([…]; n=3) was used. […] In the negative control group, in contrast to that, there were smaller amounts of contents in the intestinal tract than in the bubbled-PFD oral administration group (FIG. 14A). An attempt was made to recover contents by inserting a syringe into the intestinal tract. In the attempt, transparent liquid suspected to be PFD was successfully recovered in the syringe for the bubbled-PFD oral administration group (FIG. 14B). For the negative control group, by contrast, such liquid was not recovered, and nothing recovered was left in the syringe. […] One hour after administration, tracheostomy was performed, and ventilation was performed with room air under management with a ventilator. Thoracotomy was performed and blood was collected from the heart, and the oxygen partial pressure and carbon dioxide partial pressure in the blood obtained were measured by iSTAT.

LEWIS rats = assay: Intrarectal oxygenated perfluorodecalin, blood gas (FIG. 9); type: in vivo; conditions: for blood oxygen partial pressure vs physiological saline: intrarectal 20 mL/kg
Description: As an experiment for reproduction, LEWIS rats (male) ranging from 250 to 350 g were grouped into three groups: control group; I-EVA group (using research-grade perfluorodecalin (PFD) from Wako Pure Chemical Industries, Ltd.); and I-EVA group (using clinical-grade perfluorodecalin from F2C). Perfluorodecalin bubbled with pure oxygen gas was administered into the rectum of each rat at 20 mL/kg, and 15 minutes and 120 minutes thereafter the arterial blood was collected under anesthesia and 21% oxygen inhalation, and the oxygen partial pressure was measured.
Next, C57BL6J mice ranging from 20 to 30 g were grouped into two group: control group (physiological saline administration group); and I-EVA group (using perfluorodecalin from F2C with oxygenation). The mice of the control group were each anesthetized by intraperitoneal administration of ketamine (80 to 100 mg/kg) and xylazine (10 mg/kg) and subjected to inhalation under 15% hypoxic condition, and, when SpO2 just exceeded 70%, oxygenated perfluorodecalin was administered into the rectum at 40 mL/kg, and effects on respiratory failure were validated by using an SpO2 monitor. After the completion of the experiment, the perfluorodecalin enterally administered was recovered, and the carbon dioxide concentration was measured to compare with that measured before the operation.

[5] = Blood PFD concentration by GC/MS/MS; type: in vivo; conditions: 0.5 hours, 2 hours, and 24 hours after administration, n=6
Description: (§2) The blood PDF concentration 0.5 hours, 2 hours, and 24 hours after administration of perfluorodecalin (PFD) was measured by GC/MS/MS at times (n=6). […] Systemic toxicity after six cycles of administration of PDF was examined.

[6] = Systemic toxicity after six cycles of administration of PFD, analysis of serum; type: in vivo; conditions: for ALP / AST / Albumin / CK / Calcium / Chloride / Creatinine / Erythrocytes / Glucose / Hematocrit / Hemoglobin / Leukocytes / Platelets / Pottasium / Sodium / Total cholesterol / Tri-glyceride / Urea nitrogen / ALT: 6 doses (time/day), blood collection Day 2; for ALT: *p < 0.05
Description: as §2

[7] = test system: acute respiratory distress syndrome (ARDS) pig model; assay: Intrarectal oxygenated PFC in acute respiratory distress syndrome (ARDS) pig model; type: in vivo; conditions: ARDS pigs
Description: Furthermore, an acute respiratory distress syndrome (ARDS) pig model was produced, and improvement of oxygen partial pressure by intrarectal administration of oxygenated PFC was examined. First, micromini pigs and pork pigs (female) were used to produce an ARDS model. Physiological saline was directly administered into the airway at 40 mL/kg. […] Histological examination of lung tissue confirmed impairment of alveolar walls such as the formation of hyaline membranes, the formation of residual protein layers in alveolar spaces, and septal hypertrophy. […] Then, the thus-produced ARDS pigs were each subjected to laparotomy by median incision, and a drain for administration of perfluorodecalin was placed at a depth of 40 cm from the anus, and an […] DennisTM Colorectal Tube for recovery of perfluorodecalin was placed in the anus side.

C57BL6J mice = assay: Intrarectal oxygenated perflubron in mice having respiratory failure, SpO2 monitor; type: in vivo; conditions: 15% hypoxic condition; 40 mL/kg into the rectum
Description: Experiment was carried out to administer oxygenated perflubron to mice having respiratory failure. PFB manufactured by OriGen Biomedical (Perflubron, product name: Liquivent) was oxygenated by oxygen bubbling. Male C57BL6J mice (male) ranging from 20 to 30 g were grouped into two groups: control group (physiological saline administration group); and I-EVA group (using oxygenated perflubron). The mice of the control group were each anesthetized by intraperitoneal administration of ketamine (80 to 100 mg/kg) and xylazine (10 mg/kg) and subjected to inhalation under 15% hypoxic condition, and, when SpO2 just exceeded 70%, perflubron was administered into the rectum at 40 mL/kg, and effects on respiratory failure were validated by using an SpO2 monitor.

[8] = Oxygen and carbon dioxide partial pressures of the PFB before bubbling, after bubbling and after intrarectal administration; set-up: species or system mice; conditions: after oxygen bubbling vs before
[9] = oral 250 μL/mouse, heart blood one hour after administration, room air ventilation
[10] = 120 minutes after administration

## FC1(F)C(F)(F)C(F)(F)C2(F)C(F)(F)C(F)(F)C(F)(F)C(F)(F)C2(F)C1(F)F (stereo not shown) [PFD, octadecafluorodecahydronaphthalene]
Hypoxic pigs
  blood oxygen partial pressure: improvement in blood oxygen partial pressure
  carbon dioxide partial pressure: decrease in carbon dioxide partial pressure
  oxygen saturation: improved the oxygen saturation
[1]; after O2 bubbling for 45 minutes (1 L/min), n=3
  average oxygen pressure in the PFC: 438±19.9 mmHg
[1]; bubbled with pure oxygen, after 120 minutes
  average pressure of oxygen in the perfluorocarbon: 438±19.9 mmHg
C57BL/6J mice [2]
  walking distance: 3.34±4.05 cm
C57BL/6J mice [3]; FiO2 0.10
  ratio of arterial oxygen partial pressure between the control group and the treated group: approximately 1.6
C57BL/6J mice [3]; ILV group, hypoxic environment (FiO2 0.10)
  ventricular (arterial) oxygen partial pressure, PaO2: 63.8±5.59 mmHg
C57BL/6J mice [3]; hypoxic environment (FiO2 0.10), 60 minutes after ILV
  oxygen partial pressure in the left ventricle of the heart vs control group: significantly higher
C57BL/6J mice [3]; hypoxic environment (FiO2 0.10), after 120 minutes
  oxygen partial pressure in the left ventricle of the heart, pressure difference ILV group vs control group: 23.8±3.11 mmHg
C57BL/6J mice [4]
  oxygen partial pressure in the inferior vena cava, pressure difference ILV group vs control group: 9.40±3.65 mmHg
mice; oral 250 μL/mouse to the stomach by probe
  gastrointestinal transit after oral administration: passed through the stomach and arrived at the intestine
mice; [9]
  blood carbon dioxide partial pressure vs negative control group: tendency to exhibit decreased blood carbon dioxide partial pressure
  blood oxygen partial pressure vs negative control group: tendency to exhibit increased blood oxygen partial pressure
LEWIS rats; [10]
  blood carbon dioxide partial pressure vs physiological saline: significantly decreasing blood carbon dioxide partial pressure
  blood oxygen partial pressure vs physiological saline: enhancing blood oxygen partial pressure
LEWIS rats; 15 minutes after administration
  blood oxygen partial pressure vs physiological saline: enhancing blood oxygen partial pressure
[5]
  blood PFD concentration (detection limit): < 1 µg/mL
[6]; PFD dose volume 1 ml/head
  ALP: 470 ± 112 U/L
  AST: 68 ± 2 U/L
  Albumin: 2.6 ± 0.1 g/dL
  CK: 170 ± 22 U/L
  Calcium: 10.1 ± 0.1 mg/dL
  Chloride: 103 ± 1 mmol/L
  Creatinine: 0.2 mg/dL
  Erythrocytes: 752 ± 24 ×10^4/μl
  Glucose: 123 ± 22 mg/dL
  Hematocrit: 45.0 ± 1.1%
  Hemoglobin: 15.1 ± 0.7 g/dL
  Leukocytes: 102 ± 18 10^2/μL
  Platelets: 112 ± 11.5 10^4/µL
  Pottasium: 3.6 ± 0.2 mmol/L
  Sodium: 143 mmol/L
  Total cholesterol: 75 ± 20 mg/dL
  Tri-glyceride: 21 ± 7 mg/dL
  Urea nitrogen: 14 ± 2 mg/dL
  ALT: 24 ± 3* U/L
[6]; PFD dose volume 1.5 ml/head
  ALP: 540 ± 64 U/L
  AST: 72 ± 5 U/L
  Albumin: 2.6 ± 0.1 g/dL
  CK: 196 ± 12 U/L
  Calcium: 9.9 ± 0.3 mg/dL
  Chloride: 105 ± 1 mmol/L
  Creatinine: 0.3 ± 0.1 mg/dL
  Erythrocytes: 791 ± 24 ×10^4/μl
  Glucose: 123 ± 18 mg/dL
  Hematocrit: 45.6 ± 1.4%
  Hemoglobin: 15.2 ± 0.6 g/dL
  Leukocytes: 88 ± 5 10^2/μL
  Platelets: 124 ± 20.1 10^4/µL
  Pottasium: 3.6 ± 0.2 mmol/L
  Sodium: 143 ± 1 mmol/L
  Total cholesterol: 71 ± 22 mg/dL
  Tri-glyceride: 20 ± 4 mg/dL
  Urea nitrogen: 14 ± 2 mg/dL
  ALT: 25 ± 1* U/L
[6]; six cycles of administration, serum analysis
  toxicity due to intrarectal administration: no particular toxicity
[7]
  acidosis: did not exhibit marked acidosis
[7]; oxygenated perfluorodecalin repeatedly at 20 mL/kg intrarectal
  oxygen partial pressure, improvement: about 300 mmHg

## FC(F)(F)C(F)(F)C(F)(F)C(F)(F)C(F)(F)C(F)(F)C(F)(F)C(F)(F)Br [PFB, 1-bromo-heptadecafluorooctane]
C57BL6J mice
  SpO2: significant recovery of SpO2
[8]
  oxygen partial pressure of the PFB: enhanced oxygen partial pressure

— patent publication US20230191096A1, “PHARMACEUTICAL COMPOSITION FOR USE IN TREATING SUBJECT IN HYPOXIC STATE DUE TO RESPIRATORY FAILURE, ETC” (National University Corporation Tokyo Medical and Dental …, priority 2020, published 2023)
